The values that follow come from patent US20240368183A1, “Macrocyclic Compounds Having ENT1 Inhibiting Activity” (iTeos Belgium SA, priority 2021, published 2024).

The test system of experiment [1] is stimulated primary human T cells. Kind of experiment: T cell proliferation assay (rescue of proliferation in the presence of ATP). It counts as cell-based. As to the method: The aim of this study was to determine the potency of equilibrative nucleoside transporter 1 (ENT1) inhibitors to rescue proliferation by stimulated primary human T cells incubated in the presence of 100 uM Adenosine triphosphate (ATP), in baseline conditions (condition A) or in the presence of various proteins known to bind small molecules (condition B)
Condition B: X-VIVO15, 2% Human Serum Albumine (HSA) and 0.1% α-1-Acid Glycoprotein (AAG)
Cryopreserved purified human CD3+ T cells were thawed and washed twice with RPMI1640 medium, UltraGlutamine containing 10% hiFBS.
Cells were suspended in PBS containing 10% hiFBS. Cells were stained with CFSE by adding 2 μM solution in PBS, to get a final 1 μM CFSE solution. Cells were incubated while rotating for 5 minutes. Reaction was stopped by adding PBS with 10% FBS and cells were centrifuged for 5 minutes at 1500 rpm.
Cells were resuspended at 1.6×10^6 cells/mL, either in X-VIVO15 medium or in 4% Human Serum Albumin and 0.2% α-1-Acid Glycoprotein. 50 μL of cell suspension (8×10^4 T cells) was added to wells of sterile round-bottom 96-well plates. Cells were activated by adding 50 μL of anti-CD3 anti-CD28 coated microbeads, suspended either in XVIVO-15 medium or in 4% HSA and 0.2% α-1-Acid Glycoprotein, at a ratio of one microbead per two cells.
Serial dilutions of the ENT1 inhibitors were prepared in X-VIVO15 from 10 mM stock solutions in DMSO, and 50 μL was added to the wells.
ATP powder was diluted in X-VIVO15, and 50 μL of this compound was added to the wells to reach a final assay concentration of 100 μM. Final volume of 200 μL.
The experiments were also performed in 384 well plates—all volumes reduced by a factor of 4 (12.5 μL) with a final volume of 50 μL.
Experiments were performed in duplicate. The cells were placed in a 37° C. humidified tissue culture incubator with 5% CO2 for 72 hours for 96 well plates, 96 hours for 384 well plates After 72 or 96 hours, proliferation was measured determined by CFSE dilution via flow cytometry.

Experiment [2] concerns the target T1, human ENT1 (Homo sapiens, UniProt Q99808).
T1 construct: JAR cells expressing ENT1 were bought from ATCC® (HTB-144TM); host or cells: JAR cells (human choriocarcinoma line, own knowledge)
T1 sequence (Q99808 1-456): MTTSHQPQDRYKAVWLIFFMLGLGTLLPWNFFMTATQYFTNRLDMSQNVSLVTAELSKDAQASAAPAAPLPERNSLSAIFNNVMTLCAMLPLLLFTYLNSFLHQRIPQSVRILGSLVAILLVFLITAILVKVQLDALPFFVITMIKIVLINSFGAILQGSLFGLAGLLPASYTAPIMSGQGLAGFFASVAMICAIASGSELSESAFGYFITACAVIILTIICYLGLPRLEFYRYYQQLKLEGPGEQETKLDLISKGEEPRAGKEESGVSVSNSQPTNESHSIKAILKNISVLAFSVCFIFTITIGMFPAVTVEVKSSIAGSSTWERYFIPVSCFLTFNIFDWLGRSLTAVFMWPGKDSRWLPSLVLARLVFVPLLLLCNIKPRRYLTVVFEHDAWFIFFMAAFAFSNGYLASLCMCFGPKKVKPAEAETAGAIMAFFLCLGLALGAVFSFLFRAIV
Kind of experiment: ENT1 binding assay (competition with Sahenta-DY647). The conditions noted are these: JAR cells expressing ENT1; competition with Sahenta-DY647 (100 nM); 4° C. As to the method:
The present assay aims at showing that the compounds of the present disclosure can bind to human ENT1. The principle of the assay is a competition between the compounds of this present disclosure and Sahenta-DY647, an ENT1 inhibitor that emits fluorescence (Ex=630 nm, Em=670 nm). By measuring the fluorescence at the end of the assay we could assess the binding potency of the compounds of the present disclosure.
JAR cells expressing ENT1 were bought from ATCC® (HTB-144TM). Cells were cultured in RPMI 1640 medium (LONZA®, #BE12-702F/U1) supplemented with 10% FBS (GIBCO®, #10270-106), 10 mM Hepes (LONZA®, #BE17-737E), 1 mM Sodium Pyruvate (LONZA®, #BE13-115E) and 2% Penicillin/Streptomycin (LONZA®, #DE17-603E) at 37° C. and 5% CO2. The assay was conducted on the following buffer: HBSS (LONZA®, #LO-527F) supplemented with 10 mM Hepes (LONZA®, #BE17-737E) and 0.1% BSA (Miltenyi®, #130-091-376) on the day of the assay.
JAR cells were resuspended in the described buffer. Compounds of the present disclosure and Sahenta-DY647 were diluted 200× in the described buffer.
A total of 50 000 cells were pre-incubated for 30 min at 4° C. with the compounds of the present disclosure before adding the corresponded IC90 of Sahenta-DY647 (100 nM) and incubate once more for 30 min at 4° C. The total volume of the reaction was 100 μL (50 μL of cells, 25 μL of the compounds of the present disclosure and 25 μL of Sahenta-DY647) in a 96 well plate, U-bottom (Greiner®, #650-180). The plates were washed 2× by centrifugation (4 min, 400 rcf at 4° C.) in the same buffer. Cells were re-suspended in 70 μL of the buffer and 50 μL was transferred to a Black 384 Optiplate (PerkinElmer®, #6007279). Fluorescence (Ex=630 nm, Em=670 nm) was acquired on a Spectramax i3x (Molecular Devices®).

Setting [3] is: Condition B: X-VIVO15, 2% Human Serum Albumine (HSA) and 0.1% α-1-Acid Glycoprotein (AAG), 100 μM ATP, read-out: (2) T Cell proliferation (Condition B) IC50.
[4] abbreviates: Homo sapiens, Condition A: X-VIVO15, 100 μM ATP, read-out: T Cell proliferation (Condition A) IC50.

The structures appear in SMILES notation. Read-outs that look alike come from different tables or passages of the source.

As to `COc1cc(C(=O)OC2CCCOc3cc(cc(OC)c3OC)C(=O)NCCC(=O)N3CCCN(CC2)CC3)cc(OC)c1OC` (stereo not drawn) [Compound 21], the values for the IC50 in experiment [1] (setting [3]), in experiment [1] (setting [4]) and in experiment [2] were 1 to 20 nM, less than 0.1 nM and 1 to 20 nM, respectively.
For `COc1cc2cc(c1OC)OCCCC(OC(=O)c1ccccc1)CCN1CCCN(CCCOC2)CC1` (stereo not drawn) [Compound 2], the IC50 in experiment [1] (setting [3]) is greater than 500 nM; in experiment [1] (setting [4]), 1 to 20 nM; in experiment [2], 1 to 20 nM.
Consider `COc1cc2cc(c1OC)OCCCC(OC(=O)c1ccnn1C)CCN1CCCN(CCCOC2=O)CC1` (stereo not drawn) [Compound 10], for which the IC50 was 20 to 500 nM in experiment [1] (setting [3]), less than 0.1 nM in experiment [1] (setting [4]) and 1 to 20 nM in experiment [2].
In the same order, the values of `COc1cc(C(=O)O[C@@H]2CCCOc3cc(cc(OC)c3OC)COCCCN3CCCN(CC2)CC3)cc(OC)c1OC` (single isomer, unassigned) [Compound 4] are less than 1 nM, less than 0.1 nM and 1 to 20 nM.
Take `COc1cc(C(=O)OC2CCCOc3cc(cc(OC)c3OC)COCCN(C)C3CCN(CC2)CC3)cc(OC)c1OC` (stereo not drawn) [Compound 41]: the IC50 in experiment [1] (setting [3]) was 20 to 500 nM; in experiment [1] (setting [4]), less than 1 nM; in experiment [2], 1 to 20 nM.
In the same order, the values of `COc1cc(C(=O)OC2CCCOc3cc(cc(OC)c3OC)COCCCN3CCCN(CC2)CC3)cc(OC)c1OC` (racemic) [Compound 3] are less than 1 nM, less than 0.1 nM and less than 1 nM.
Take `COc1cc(C(=O)OC2CCCOc3cc(cc(OC)c3OC)C(=O)NCCCN3CCN(CC2)CC3=O)cc(OC)c1OC` (stereo not drawn) [Compound 30]: the values for the IC50 in experiment [1] (setting [3]), in experiment [1] (setting [4]) and in experiment [2] were 20 to 500 nM, less than 1 nM and 1 to 20 nM, respectively.
Consider `COc1cc2cc(c1OC)OCCCC(OC(=O)c1ccn(C)n1)CCN1CCCN(CCCOC2=O)CC1` (stereo not drawn) [Compound 11], for which the results for the IC50 in experiment [1] (setting [3]), in experiment [1] (setting [4]) and in experiment [2] were greater than 500 nM, less than 1 nM and 1 to 20 nM, respectively.
In the same order, the values of `COc1cc2cc(c1OC)OCCCC(OC(=O)CCC(=O)N1CCOCC1)CCN1CCCN(CCCNC2=O)CC1` (stereo not drawn) [Compound 20] are greater than 500 nM, 1 to 20 nM and 20 to 500 nM.
In the same order, the values of `COc1cc2cc(c1OC)OCCCC(OC(=O)c1cc(C)nn1C)CCN1CCCN(CCCOC2=O)CC1` (stereo not drawn) [Compound 12] are 1 to 20 nM, less than 1 nM and 1 to 20 nM.
Take `COc1cc2cc(c1OC)OCCCC(Oc1nccc3ccccc13)CCN1CCCN(CCCOC2=O)CC1` (stereo not drawn) [Compound 23]: the IC50 in experiment [1] (setting [3]) lay in the range of 20 to 500 nM; in experiment [1] (setting [4]), 1 to 20 nM; in experiment [2], 1 to 20 nM.
For the compound `COc1cc(C(=O)OC2CCCOc3cc(cc(OC)c3OC)C(=O)NCCN3CCCN(CC2)CC3)cc(OC)c1OC` (stereo not drawn) [Compound 19], the IC50 was 20 to 500 nM in experiment [1] (setting [3]), less than 1 nM in experiment [1] (setting [4]) and 1 to 20 nM in experiment [2].
As to `COc1cc2cc(c1OC)OCCCC(OC(=O)CCC(=O)N1CCOCC1)CCN1CCCN(CCCOC2)CC1` (stereo not drawn) [Compound 6], the IC50 is greater than 500 nM in experiment [1] (setting [3]), less than 1 nM in experiment [1] (setting [4]) and 1 to 20 nM in experiment [2].
On to `COc1cc(OC)cc(C(=O)OC2CCCOc3cc(cc(OC)c3OC)C(=O)OCCCN3CCCN(CC2)CC3)c1` (stereo not drawn) [Compound 15], for which the IC50 was 1 to 20 nM in experiment [1] (setting [3]), less than 1 nM in experiment [1] (setting [4]) and 1 to 20 nM in experiment [2].
